Measured values as given in ChEMBL document CHEMBL2010691, “Discovery of loperamide as an antagonist of angiopoietin1 and angiopoietin2 by virtual screening” (Bioorg Med Chem Lett, 2012).
pKd: −log10 of the molar value. Activity calls are given as the source filed them. The calls are words filed in the database; no cut-off is given here.

Tests used:
Angiopoietin-1 receptor [1] = target: T1, Angiopoietin-1 receptor (Homo sapiens, UniProt Q02763); test: Binding affinity to human recombinant Tie2 by SPR assay
Angiopoietin-1 receptor [2] = target: T1, Angiopoietin-1 receptor; test: Displacement of angiopoietin 1 from human recombinant Tie2 at 50 to 100 uM
Angiopoietin-1 receptor [3] = target: T1, Angiopoietin-1 receptor; test: Displacement of angiopoietin 1 from human recombinant Tie2 at 25 to 100 uM
Angiopoietin-1 receptor [4] = target: T1, Angiopoietin-1 receptor; test: Displacement of angiopoietin 2 from human recombinant Tie2 at 25 to 100 uM

T1 sequence (Q02763 whole entry): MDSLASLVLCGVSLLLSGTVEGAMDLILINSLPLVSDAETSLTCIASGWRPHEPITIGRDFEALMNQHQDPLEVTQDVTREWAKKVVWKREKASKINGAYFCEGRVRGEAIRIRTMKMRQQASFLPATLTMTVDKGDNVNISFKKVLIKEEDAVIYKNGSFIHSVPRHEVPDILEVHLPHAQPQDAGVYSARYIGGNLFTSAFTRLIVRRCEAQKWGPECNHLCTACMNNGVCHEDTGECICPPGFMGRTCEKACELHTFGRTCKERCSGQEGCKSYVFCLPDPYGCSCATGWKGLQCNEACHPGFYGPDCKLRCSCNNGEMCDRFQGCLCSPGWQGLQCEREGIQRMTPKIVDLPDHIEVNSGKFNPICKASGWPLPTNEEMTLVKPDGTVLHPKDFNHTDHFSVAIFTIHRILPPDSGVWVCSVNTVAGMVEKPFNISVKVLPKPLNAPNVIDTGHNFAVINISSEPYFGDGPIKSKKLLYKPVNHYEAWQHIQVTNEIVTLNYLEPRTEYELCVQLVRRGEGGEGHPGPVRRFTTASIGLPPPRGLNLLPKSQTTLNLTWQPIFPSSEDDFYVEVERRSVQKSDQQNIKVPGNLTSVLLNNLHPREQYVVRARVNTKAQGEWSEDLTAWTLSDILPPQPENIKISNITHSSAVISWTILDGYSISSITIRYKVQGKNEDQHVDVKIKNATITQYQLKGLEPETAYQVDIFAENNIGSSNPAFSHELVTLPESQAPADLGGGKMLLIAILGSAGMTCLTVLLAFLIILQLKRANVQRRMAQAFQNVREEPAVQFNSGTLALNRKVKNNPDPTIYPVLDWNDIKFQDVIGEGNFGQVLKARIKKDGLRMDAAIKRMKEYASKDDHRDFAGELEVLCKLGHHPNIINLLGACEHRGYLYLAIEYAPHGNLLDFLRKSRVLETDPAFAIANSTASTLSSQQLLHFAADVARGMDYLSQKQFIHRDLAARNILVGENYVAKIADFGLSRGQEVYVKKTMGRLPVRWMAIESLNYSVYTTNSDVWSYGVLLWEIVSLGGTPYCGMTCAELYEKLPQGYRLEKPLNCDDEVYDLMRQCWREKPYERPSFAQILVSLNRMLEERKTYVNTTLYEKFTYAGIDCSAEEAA

Row | SMILES | pKd (Angiopoietin-1 receptor [1]) | Activity (Angiopoietin-1 receptor [2]) | Activity (Angiopoietin-1 receptor [3]) | Activity (Angiopoietin-1 receptor [4])
1 | O=C(N[C@H](Cc1ccccc1F)C(=O)O)OCC1c2ccccc2-c2ccccc21 | 3.92 | Active |  | 
2 | CC1(C)S[C@@H]2[C@H](NC(=O)[C@H](N)c3ccccc3)C(=O)N2[C@H]1C(=O)O [AMPICILLIN] | 4.09 | Active |  | 
3 | O=C(O)COCCN1CCN(C(c2ccccc2)c2ccc(Cl)cc2)CC1 (centres undefined) [CETIRIZINE] | 4.05 | Active |  | 
4 | CN(C)C(=O)C(CCN1CCC(O)(c2ccc(Cl)cc2)CC1)(c1ccccc1)c1ccccc1 [LOPERAMIDE] | 5.23 |  | Active | Active
